Results: paper PMC12196358, “Indole Alkaloids and Phenolic Amides from the Rhizomes of Cimicifuga heracleifolia and Their In Vitro Soluble Epoxide Hydrolase (sEH) Inhibitory Activity” (Plants, 2025)
“Also recorded” adds a separate entry of the source.

Experiments:
[1] = target: T1, soluble epoxide hydrolase (sEH) (Homo sapiens, UniProt P34913); assay: sEH inhibitory activity, fluorescence-based assay with PHOME as substrate; assay type: biochemical; details: recombinant sEH; for IC50: 37 °C, mean ± SD (n = 3); for sEH inhibitory activity (in words): compounds tested 0.1–100.0 μM
T1 construct: purchased Cayman Chemical Company 100116
T1 sequence (P34913 1-555): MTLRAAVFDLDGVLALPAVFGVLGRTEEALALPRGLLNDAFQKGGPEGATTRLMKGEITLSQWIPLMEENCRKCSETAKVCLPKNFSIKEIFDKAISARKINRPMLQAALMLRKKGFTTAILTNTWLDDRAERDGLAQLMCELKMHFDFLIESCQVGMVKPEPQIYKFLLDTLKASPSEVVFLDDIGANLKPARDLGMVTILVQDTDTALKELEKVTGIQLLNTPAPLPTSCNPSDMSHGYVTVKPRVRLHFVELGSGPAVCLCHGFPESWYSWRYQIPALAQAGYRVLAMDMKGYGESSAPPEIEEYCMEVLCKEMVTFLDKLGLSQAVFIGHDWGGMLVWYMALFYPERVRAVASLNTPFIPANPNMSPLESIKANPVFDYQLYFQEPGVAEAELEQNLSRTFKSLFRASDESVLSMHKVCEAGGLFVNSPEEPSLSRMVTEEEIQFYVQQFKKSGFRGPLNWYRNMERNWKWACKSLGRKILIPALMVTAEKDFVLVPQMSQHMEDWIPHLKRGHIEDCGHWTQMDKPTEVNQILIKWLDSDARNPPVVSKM
Experimental: The sEH inhibitory activities of compounds 1−10 were evaluated using a fluorescence-based assay with 3-phenyl-cyano(6-methoxy-2-naphthalenyl)methyl ester-2-oxiraneacetic acid (PHOME) as the substrate.
The epoxide hydrolase (sEH) enzyme is a recombinant enzyme with a concentration of 0.8 mg/mL, purchased from the Cayman Chemical Company in the United States (catalogue number: 100116, batch number: 069065) and stored at −80 °C to ensure its activity.
The enzymatic reactions were performed in a 96-well plate at 37 °C, where sEH hydrolyzed the fluorogenic substrate PHOME (MedChemExpress LLC., Princeton, NJ, USA) in the presence of each compound. The fluorescence signals were measured at an excitation wavelength of 330 nm and an emission wavelength of 465 nm. Wells containing the substrate alone (without the test compounds) served as negative controls. […] The inhibitory activity of each compound was evaluated based on the reduction in the formation of 6-methoxy-2-naphthaldehyde, a fluorescent product generated by PHOME hydrolysis.

[2] = target: T1, soluble epoxide hydrolase (sEH); assay: sEH kinetic study (Lineweaver–Burk plots, varying inhibitor and PHOME concentrations); assay type: biochemical; details: compound 1 to 5 μM, PHOME 1 to 20 μM
Experimental: Furthermore, the inhibition mechanisms of phenolic amides 6–8 and 10 were elucidated by kinetic analysis using various concentrations of compounds and the substrate, PHOME.
The inhibitory behaviour of compounds 6–8 and 10 against sEH was examined by analyzing kinetic changes at varying inhibitor concentrations. Each compound was tested at concentrations ranging from 1 to 5 μM, whereas the substrate PHOME was applied at concentrations ranging from 1 to 20 μM. The experimental data were fitted to the Michaelis–Menten equation to evaluate the kinetic parameters. The mode of inhibition was further determined using Lineweaver–Burk plots. Data were analyzed and plotted using GraphPad Prism 7 (GraphPad Software Inc., San Diego, CA, USA).

Row | IC50 [1] | sEH inhibitory activity (in words) [1] | mechanism (mode) of sEH inhibition [2] | Structure (SMILES)
1 | > 100 µM | lack of inhibitory activity |  | COc1ccc2c(C(=O)C=C(C)C)c[nH]c2c1 [Compound 1, 6-methoxy-3-(3-methyl-1-oxo-2-butenyl) 1H indole]
2 | > 100 µM | lack of inhibitory activity |  | CC(C)=CC(=O)c1c[nH]c2ccccc12 [Compound 2, 3-(3-methyl-1-oxo-2-butenyl) 1H indole]
3 | > 100 µM |  |  | CC(C)CC[C@]1(O)C(=O)N([C@@H]2O[C@H](CO)[C@@H](O)[C@H](O)[C@H]2O)c2ccccc21 [Compound 3, (3R)-1-(β-D-glucopyranosyl)-3-hydroxy-3-(3-methylbutyl)-2-oxindole]
4 | 8.74 ± 0.42 µM | most potent sEH inhibitory activity | non-competitive | COc1cc(/C=C/C(=O)NCCc2ccc(O)c(O)c2)ccc1O[C@@H]1O[C@H](CO)[C@H](O)[C@H](O)[C@H]1O [Compound 6, cimicifugamide A]
5 | 15.63 ± 0.1 µM | moderate inhibitory activity | mixed-type competitive | COc1cc(CCNC(=O)/C=C/c2ccc(O[C@@H]3O[C@H](CO)[C@H](O)[C@H](O)[C@H]3O)c(OC)c2)ccc1O [Compound 7, cimicifugamide]
6 | 20.6 ± 0.89 µM | moderate inhibitory activity | mixed-type competitive | COc1cc(/C=C/C(=O)NCCc2ccc(O)cc2)ccc1O[C@@H]1O[C@H](CO)[C@H](O)[C@H](O)[C@H]1O [Compound 8, demethoxycimicifugamide]
7 | 17.2 ± 0.31 µM | moderate inhibitory activity | uncompetitive | COc1cc(/C=C/C(=O)NCCc2ccc(O)cc2)ccc1O [Compound 10, N-trans-feruloyl tyramine]

Row | Structure (SMILES) | IC50 [1] | sEH inhibitory activity (in words) [1] | mechanism (mode) of sEH inhibition [2]
8 | CC(=O)NCCc1ccc(O)c(OC2OC(CO)C(O)C(O)C2O)c1 [Compound 4, N-acetyldopamine-3-O-β-D-allopyranoside] | > 100 µM | did not show significant inhibitory activity | 
9 | CC(=O)NCCc1ccc(O)c(O[C@@H]2O[C@H](CO)[C@@H](O)[C@H](O)[C@H]2O)c1 [Compound 5, N-acetyldopamine-3-O-β-D-glucopyranoside] | > 100 µM | did not show significant inhibitory activity | 
10 | COc1cc(C=CC(=O)NCCc2ccc(OC3OC(CO)C(O)C(O)C3O)c(OC)c2)ccc1O (centres unmarked) [Compound 9, cimicifugamide C] | > 100 µM | did not show significant inhibitory activity; also recorded: no sEH inhibitory activity | 
